Where “and” joins values, the source holds several entries; their conditions need not be identical. Identical values can stand only once. Like-named read-outs stand apart in the source and are kept apart here.
Legend:
rNav1.7 = rNav1.7 (Rattus norvegicus, UniProt O08562); test: cell-based; details: for IC50: PatchXpress, tonic block, rat Nav1.7, read-out: PX rNav1.7 Tonic IC50
mNav1.7 = mNav1.7 (Mus musculus, UniProt Q62205); test: cell-based; details: for IC50: PatchXpress, tonic block, mouse Nav1.7, read-out: PX mNav1.7 Tonic IC50; for mNav1.7/hNav1.7: ratio of PX tonic IC50, mouse Nav1.7 over human Nav1.7
mouse Nav1.4 = mouse Nav1.4 (Mus musculus, UniProt Q9ER60); test: cell-based; details: for IC50: PatchXpress, tonic block, mouse Nav1.4, read-out: PX mNav1.4 Tonic IC50; for mNav1.4/mNav1.7: ratio of PX tonic IC50, mouse Nav1.4 over mouse Nav1.7
hNav1.7 = hNav1.7 (Homo sapiens, UniProt Q15858); test: cell-based; assay type: cell-based; details: read-out: PX hNav1.7 Tonic IC50
hNav1.5 = hNav1.5 (Homo sapiens, UniProt Q14524); test: cell-based; details: for Nav1.5/Nav1.7: ratio of PX tonic IC50 values
hNav1.4 = hNav1.4 (Homo sapiens, UniProt P35499); test: cell-based; assay type: cell-based; details: for IC50: PatchXpress, tonic block, read-out: PX hNav1.4 Tonic IC50; for Nav1.4/Nav1.7: ratio of PX tonic IC50 values
hNav1.6 = hNav1.6 (Homo sapiens, UniProt Q9UQD0); test: cell-based; assay type: cell-based; details: Table 15; for Nav1.6/Nav1.7: ratio of PX tonic IC50 values; for IC50: read-out: PX hNav1.6 Tonic IC50
[1] = tested on: TTX-sensitive Nav channels in mouse DRG neuron; details: for block of TTX-sensitive Nav current: C57 Black 6 mouse DRG neuron
[2] = PatchXpress, tonic block, human Nav1.7

hNav1.7, sequence (Q15858 whole entry): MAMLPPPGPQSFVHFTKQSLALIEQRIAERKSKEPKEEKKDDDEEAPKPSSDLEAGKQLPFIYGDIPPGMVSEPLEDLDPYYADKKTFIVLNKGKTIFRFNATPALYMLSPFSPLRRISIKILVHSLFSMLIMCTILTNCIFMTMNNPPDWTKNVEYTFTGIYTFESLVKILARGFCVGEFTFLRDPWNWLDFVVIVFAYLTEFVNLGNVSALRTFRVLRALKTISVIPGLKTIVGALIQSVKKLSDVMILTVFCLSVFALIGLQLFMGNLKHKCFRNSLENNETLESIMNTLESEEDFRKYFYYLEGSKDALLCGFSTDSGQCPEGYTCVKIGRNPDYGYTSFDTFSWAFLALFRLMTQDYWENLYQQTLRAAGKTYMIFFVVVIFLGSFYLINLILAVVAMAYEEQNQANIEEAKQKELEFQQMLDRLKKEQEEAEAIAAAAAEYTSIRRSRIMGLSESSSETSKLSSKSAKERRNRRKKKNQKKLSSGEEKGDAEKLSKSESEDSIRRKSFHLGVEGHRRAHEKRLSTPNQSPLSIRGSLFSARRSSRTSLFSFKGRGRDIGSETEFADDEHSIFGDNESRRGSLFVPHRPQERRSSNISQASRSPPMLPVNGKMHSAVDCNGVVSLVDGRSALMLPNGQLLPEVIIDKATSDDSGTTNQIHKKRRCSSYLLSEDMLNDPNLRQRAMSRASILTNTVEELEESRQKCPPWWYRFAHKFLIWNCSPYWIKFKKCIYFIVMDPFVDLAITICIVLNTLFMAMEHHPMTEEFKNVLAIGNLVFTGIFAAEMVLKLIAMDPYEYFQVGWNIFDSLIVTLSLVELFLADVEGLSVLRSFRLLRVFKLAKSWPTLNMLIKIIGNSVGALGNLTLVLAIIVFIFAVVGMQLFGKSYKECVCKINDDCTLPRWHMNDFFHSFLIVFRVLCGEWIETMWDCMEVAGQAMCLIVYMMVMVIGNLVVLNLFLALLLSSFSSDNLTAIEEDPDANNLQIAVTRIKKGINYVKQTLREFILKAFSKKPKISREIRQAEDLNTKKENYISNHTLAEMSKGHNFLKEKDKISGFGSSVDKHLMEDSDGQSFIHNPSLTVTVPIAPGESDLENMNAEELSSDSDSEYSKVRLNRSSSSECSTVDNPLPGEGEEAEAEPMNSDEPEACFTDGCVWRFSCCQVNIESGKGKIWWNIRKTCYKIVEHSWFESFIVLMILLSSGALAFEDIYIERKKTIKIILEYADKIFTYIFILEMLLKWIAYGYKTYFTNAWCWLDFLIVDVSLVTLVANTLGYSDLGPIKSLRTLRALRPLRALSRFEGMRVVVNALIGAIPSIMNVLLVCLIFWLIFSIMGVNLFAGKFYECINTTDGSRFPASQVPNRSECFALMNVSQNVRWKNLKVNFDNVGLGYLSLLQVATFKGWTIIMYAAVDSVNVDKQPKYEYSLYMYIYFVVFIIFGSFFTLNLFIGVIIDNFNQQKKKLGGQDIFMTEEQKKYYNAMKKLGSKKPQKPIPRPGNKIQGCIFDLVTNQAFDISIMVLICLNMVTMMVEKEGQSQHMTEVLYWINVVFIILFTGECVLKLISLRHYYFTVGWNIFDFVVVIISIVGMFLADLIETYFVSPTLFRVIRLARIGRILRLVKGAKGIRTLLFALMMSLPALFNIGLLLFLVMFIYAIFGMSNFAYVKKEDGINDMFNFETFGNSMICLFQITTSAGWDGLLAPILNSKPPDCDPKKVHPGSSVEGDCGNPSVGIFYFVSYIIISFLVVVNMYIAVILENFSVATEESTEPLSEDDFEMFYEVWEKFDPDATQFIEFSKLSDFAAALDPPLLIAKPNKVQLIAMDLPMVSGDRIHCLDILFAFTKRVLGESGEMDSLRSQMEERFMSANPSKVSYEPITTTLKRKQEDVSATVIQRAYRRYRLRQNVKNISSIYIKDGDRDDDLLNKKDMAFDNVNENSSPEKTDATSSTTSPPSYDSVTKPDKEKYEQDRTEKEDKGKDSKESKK
rNav1.7, sequence (O08562 whole entry): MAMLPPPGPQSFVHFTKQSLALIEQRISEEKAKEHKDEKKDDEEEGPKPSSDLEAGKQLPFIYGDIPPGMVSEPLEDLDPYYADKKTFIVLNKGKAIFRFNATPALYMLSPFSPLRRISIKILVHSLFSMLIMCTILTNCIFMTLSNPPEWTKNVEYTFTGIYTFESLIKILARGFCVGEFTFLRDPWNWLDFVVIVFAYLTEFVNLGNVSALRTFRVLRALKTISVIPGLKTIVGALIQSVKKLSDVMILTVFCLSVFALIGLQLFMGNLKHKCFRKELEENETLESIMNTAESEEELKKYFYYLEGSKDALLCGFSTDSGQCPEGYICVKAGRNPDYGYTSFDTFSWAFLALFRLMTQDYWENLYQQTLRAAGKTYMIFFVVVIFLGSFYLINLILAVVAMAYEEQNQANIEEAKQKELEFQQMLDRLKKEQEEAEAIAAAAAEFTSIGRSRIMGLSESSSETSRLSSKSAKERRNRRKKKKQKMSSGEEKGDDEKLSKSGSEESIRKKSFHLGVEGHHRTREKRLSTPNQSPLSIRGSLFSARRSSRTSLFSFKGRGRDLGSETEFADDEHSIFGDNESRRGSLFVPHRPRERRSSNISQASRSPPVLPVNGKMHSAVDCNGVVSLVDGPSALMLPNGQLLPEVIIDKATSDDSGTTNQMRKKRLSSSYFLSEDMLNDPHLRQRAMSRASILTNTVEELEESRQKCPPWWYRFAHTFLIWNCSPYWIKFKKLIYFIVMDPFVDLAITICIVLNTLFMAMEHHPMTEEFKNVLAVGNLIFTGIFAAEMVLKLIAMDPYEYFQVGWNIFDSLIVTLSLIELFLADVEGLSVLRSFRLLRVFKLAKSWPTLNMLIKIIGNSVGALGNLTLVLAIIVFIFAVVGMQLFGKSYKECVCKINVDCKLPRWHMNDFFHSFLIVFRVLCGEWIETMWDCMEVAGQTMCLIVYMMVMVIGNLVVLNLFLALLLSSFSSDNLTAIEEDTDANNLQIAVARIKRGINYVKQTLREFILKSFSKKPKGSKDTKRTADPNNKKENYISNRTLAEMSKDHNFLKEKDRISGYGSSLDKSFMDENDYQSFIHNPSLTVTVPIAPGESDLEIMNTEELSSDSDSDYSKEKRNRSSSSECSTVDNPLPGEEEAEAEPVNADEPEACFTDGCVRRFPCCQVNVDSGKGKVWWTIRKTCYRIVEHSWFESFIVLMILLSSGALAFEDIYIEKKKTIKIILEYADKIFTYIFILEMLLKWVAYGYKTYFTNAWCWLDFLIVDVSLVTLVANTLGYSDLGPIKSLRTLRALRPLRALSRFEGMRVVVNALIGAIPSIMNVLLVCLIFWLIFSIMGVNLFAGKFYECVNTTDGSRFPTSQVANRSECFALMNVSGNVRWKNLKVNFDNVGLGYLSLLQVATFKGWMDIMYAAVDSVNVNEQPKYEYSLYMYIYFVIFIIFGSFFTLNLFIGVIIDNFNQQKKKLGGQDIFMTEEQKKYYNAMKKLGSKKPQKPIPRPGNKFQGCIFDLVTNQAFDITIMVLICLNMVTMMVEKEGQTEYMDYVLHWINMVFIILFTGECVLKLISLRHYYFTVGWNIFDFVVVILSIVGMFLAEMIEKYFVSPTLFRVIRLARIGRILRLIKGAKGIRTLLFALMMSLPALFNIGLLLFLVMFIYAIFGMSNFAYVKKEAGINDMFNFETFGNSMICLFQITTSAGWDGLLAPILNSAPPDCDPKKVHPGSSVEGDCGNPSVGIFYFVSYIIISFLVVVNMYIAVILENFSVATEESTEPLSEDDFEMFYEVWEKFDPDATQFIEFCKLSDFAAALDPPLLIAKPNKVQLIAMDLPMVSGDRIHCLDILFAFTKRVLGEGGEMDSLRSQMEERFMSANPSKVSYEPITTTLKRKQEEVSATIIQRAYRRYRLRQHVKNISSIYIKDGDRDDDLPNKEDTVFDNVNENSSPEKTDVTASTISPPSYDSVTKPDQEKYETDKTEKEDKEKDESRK

`C#CC[C@H](N)C(=O)NCCCC[C@@H]1NC(=O)[C@H](CCCNC(=N)N)NC(=O)[C@H](CCCCN)NC(=O)[C@H](CO)NC(=O)[C@H](CC(=O)O)NC(=O)[C@@H]2CSSC[C@@H]3NC(=O)[C@H](CCCNC(=N)N)NC(=O)[C@H](CC(C)C)NC(=O)CNC(=O)[C@H](CCC(=O)O)NC(=O)[C@H](CSSC[C@H](NC(=O)[C@H](Cc4ccc(O)cc4)NC(=O)[C@@H](N)CC#N)C(=O)N[C@@H](CCC(N)=O)C(=O)N[C@@H](CCCCN)C(=O)N[C@@H](Cc4c[nH]c5ccccc45)C(=O)N[C@@H](CCCC)C(=O)N[C@@H](Cc4c[nH]c5ccccc45)C(=O)N[C@@H]([C@@H](C)O)C(=O)N2)NC(=O)[C@H](CSSC[C@@H](C(=O)N[C@@H](CCCNC(=N)N)C(=O)N[C@@H](CCCCN)C(=O)N[C@@H](CCC(=O)O)C(=O)N[C@H](C(N)=O)[C@@H](C)CC)NC(=O)[C@H](Cc2c[nH]c4ccccc24)NC(=O)[C@H](CC(C)C)NC(=O)[C@H](CCCCN)NC3=O)NC1=O` gave an IC50 (rNav1.7) of 2.73 nM, a rNav1.7/hNav1.7 (rNav1.7; ratio of PX tonic IC50, rat Nav1.7 over human Nav1.7) of 1.71 and an IC50 (mNav1.7) of 9.79 nM. For the same compound, the mNav1.7/hNav1.7 (mNav1.7) was 6.15, the IC50 (mouse Nav1.4) was 62.7 nM and the mNav1.4/mNav1.7 (mouse Nav1.4) was 6.4.

`C#CC[C@@H]1NC(=O)[C@@H]2CSSC[C@H](NC(=O)[C@H](Cc3ccc(O)cc3)NC(=O)[C@@H](N)CC#N)C(=O)N[C@@H](CCC(N)=O)C(=O)N[C@@H](CCCCN)C(=O)N[C@@H](Cc3c[nH]c4ccccc34)C(=O)N[C@@H](CCCC)C(=O)N[C@@H](Cc3c[nH]c4ccccc34)C(=O)N[C@@H]([C@@H](C)O)C(=O)N[C@H]3CSSC[C@H](NC(=O)[C@H](CCCNC(=N)N)NC(=O)[C@H](CC(C)C)NC(=O)CNC1=O)C(=O)N[C@@H](CCCCN)C(=O)N[C@@H](CC(C)C)C(=O)N[C@@H](Cc1c[nH]c4ccccc14)C(=O)N[C@H](C(=O)N[C@@H](CCCNC(=N)N)C(=O)N[C@@H](CCCCN)C(=O)N[C@@H](CCC(=O)O)C(=O)N[C@H](C(N)=O)[C@@H](C)CC)CSSC[C@H](NC(=O)[C@H](C)NC(=O)[C@H](CCCNC(=N)N)NC(=O)[C@H](CCCCN)NC(=O)[C@H](CO)NC(=O)[C@H](CC(=O)O)NC3=O)C(=O)N2` [CyA-[Nle6, Pra17, Glu28]JzTx-V(1-29)] showed an IC50 (rNav1.7) of 1.41 nM, an IC50 (mNav1.7) of 4.8 nM and an IC50 (mouse Nav1.4) of 32.2 nM.

`CCCC[C@@H]1NC(=O)[C@H](Cc2c[nH]c3ccccc23)NC(=O)[C@H](CCCCN)NC(=O)[C@H](CCC(N)=O)NC(=O)[C@@H](NC(=O)[C@H](Cc2ccc(O)cc2)NC(=O)[C@@H](N)CC(C)C)CSSC[C@@H]2NC(=O)[C@@H]3CSSC[C@@H](C(=O)N[C@@H](CCCNC(=N)N)C(=O)N[C@@H](CCCCN)C(=O)N[C@H](C(=O)N[C@H](C(N)=O)[C@@H](C)CC)[C@@H](C)CC)NC(=O)[C@H](Cc4c[nH]c5ccccc45)NC(=O)[C@H](CC(C)C)NC(=O)[C@H](CCCCN)NC(=O)[C@H](CSSC[C@H](NC(=O)[C@H]([C@@H](C)O)NC(=O)[C@H](Cc4c[nH]c5ccccc45)NC1=O)C(=O)N[C@@H](CC(=O)O)C(=O)N[C@@H](CO)C(=O)N[C@@H](CCCCN)C(=O)N[C@@H](CCCNC(=N)N)C(=O)N[C@@H](C)C(=O)N3)NC(=O)[C@H](CCCNC(=N)N)NC(=O)[C@H](CC(C)C)NC(=O)CNC(=O)[C@H](CCC(=O)O)NC2=O` [Leu-[Nle6]JzTx-V(1-29)] showed an IC50 (hNav1.7; [2]) of 0.13 nM, an IC50 (mNav1.7) of 1.33 nM and a mNav1.7/hNav1.7 (mNav1.7) of 10.22. The IC50 (mouse Nav1.4) was 1.8 nM and the mNav1.4/mNav1.7 (mouse Nav1.4) was 1.4.

`CCCC[C@@H]1NC(=O)[C@H](Cc2c[nH]c3ccccc23)NC(=O)[C@H](CCCCN)NC(=O)[C@H](CCC(N)=O)NC(=O)[C@@H](NC(=O)[C@H](Cc2ccc(O)cc2)NC(=O)[C@@H](N)CCC)CSSC[C@@H]2NC(=O)[C@@H]3CSSC[C@@H](C(=O)N[C@@H](CCCNC(=N)N)C(=O)N[C@@H](CCCCN)C(=O)N[C@H](C(=O)N[C@H](C(N)=O)[C@@H](C)CC)[C@@H](C)CC)NC(=O)[C@H](Cc4c[nH]c5ccccc45)NC(=O)[C@H](CC(C)C)NC(=O)[C@H](CCCCN)NC(=O)[C@H](CSSC[C@H](NC(=O)[C@H]([C@@H](C)O)NC(=O)[C@H](Cc4c[nH]c5ccccc45)NC1=O)C(=O)N[C@@H](CC(=O)O)C(=O)N[C@@H](CO)C(=O)N[C@@H](CCCCN)C(=O)N[C@@H](CCCNC(=N)N)C(=O)N[C@@H](C)C(=O)N3)NC(=O)[C@H](CCCNC(=N)N)NC(=O)[C@H](CC(C)C)NC(=O)CNC(=O)[C@H](CCC(=O)O)NC2=O` [Nva-[Nle6]JzTx-V(1-29)] gave an IC50 (hNav1.7; [2]) of 0.82 nM and an IC50 (mouse Nav1.4) of 4.54 nM.

`C#CC[C@H](N)C(=O)N[C@@H](Cc1ccc(O)cc1)C(=O)N[C@H]1CSSC[C@@H]2NC(=O)[C@@H]3CSSC[C@@H](C(=O)N[C@@H](CCCNC(=N)N)C(=O)N[C@@H](CCCCN)C(=O)N[C@H](C(=O)N[C@@H](Cc4c[nH]c5ccccc45)C(N)=O)[C@@H](C)CC)NC(=O)[C@H](Cc4c[nH]c5ccccc45)NC(=O)[C@H](CC(C)C)NC(=O)[C@H](CCCCN)NC(=O)[C@H](CSSC[C@H](NC(=O)[C@H]([C@@H](C)O)NC(=O)[C@H](Cc4c[nH]c5ccccc45)NC(=O)[C@H](CCCC)NC(=O)[C@H](Cc4c[nH]c5ccccc45)NC(=O)[C@H](CCCCN)NC(=O)[C@H](CCC(N)=O)NC1=O)C(=O)N[C@@H](CC(=O)O)C(=O)N[C@@H](CO)C(=O)N[C@@H](CCCCN)C(=O)N[C@@H](CCCNC(=N)N)C(=O)N[C@@H](C)C(=O)N3)NC(=O)[C@H](CCCNC(=N)N)NC(=O)[C@H](CC(C)C)NC(=O)CNC(=O)[C@H](CCC(=O)O)NC2=O` [Pra-[Nle6; Trp29]JzTx-V(1-29)] gave an IC50 (mNav1.7) of 10.7 nM, a mNav1.7/hNav1.7 (mNav1.7) of 2.23 and an IC50 (mouse Nav1.4) of 9.67 nM. It also gave a mNav1.4/mNav1.7 (mouse Nav1.4) of 0.91.

With `C#CC[C@H](N)C(=O)NCCCC[C@@H]1NC(=O)[C@H](CCCNC(=N)N)NC(=O)[C@H](CCCCN)NC(=O)[C@H](CO)NC(=O)[C@H](CC(=O)O)NC(=O)[C@@H]2CSSC[C@@H]3NC(=O)[C@H](CCCNC(=N)N)NC(=O)[C@H](CC(C)C)NC(=O)CNC(=O)[C@H](CCC(=O)O)NC(=O)[C@H](CSSC[C@H](NC(=O)[C@H](Cc4ccc(O)cc4)NC(=O)[C@@H](N)CC#N)C(=O)N[C@@H](CCC(N)=O)C(=O)N[C@@H](CCCCN)C(=O)N[C@@H](Cc4c[nH]c5ccccc45)C(=O)N[C@@H](CCCC)C(=O)N[C@@H](Cc4c[nH]c5ccccc45)C(=O)N[C@@H]([C@@H](C)O)C(=O)N2)NC(=O)[C@H](CSSC[C@@H](C(=O)N[C@@H](CCCNC(=N)N)C(=O)N[C@@H](CCCCN)C(=O)N[C@@H](CCC(=O)O)C(=O)N[C@H](C(N)=O)[C@@H](C)CC)NC(=O)[C@H](Cc2c[nH]c4ccccc24)NC(=O)[C@H](CC(C)C)NC(=O)[C@H](CCCCN)NC3=O)NC1=O` [compound 392] the IC50 (hNav1.7; Table 15) was 1.59 nM, the Nav1.5/Nav1.7 (hNav1.5; Table 12) was 659 and 615 and 841 and the IC50 (hNav1.4; Table 12) was 110 nM. It also gave a Nav1.6/Nav1.7 (hNav1.6) of 157, an IC50 (hNav1.6) of 250 nM and an IC50 [1] of 46.6 nM. For the same compound, the “fold less potent than JzTx-V in inhibition of TTX-sensitive current” value [1] was “about 3 fold”.

Work on `CCCC[C@@H]1NC(=O)[C@H](Cc2c[nH]c3ccccc23)NC(=O)[C@H](CCCCN)NC(=O)[C@H](CCC(N)=O)NC(=O)[C@@H](NC(=O)[C@H](Cc2ccc(O)cc2)NC(=O)[C@@H](N)CC#N)CSSC[C@@H]2NC(=O)[C@@H]3CSSC[C@@H](C(=O)N[C@@H](CCCNC(=N)N)C(=O)N[C@@H](CCCCN)C(=O)N[C@@H](CCC(=O)O)C(=O)N[C@H](C(N)=O)[C@@H](C)CC)NC(=O)[C@H](Cc4c[nH]c5ccccc45)NC(=O)[C@H](CC(C)C)NC(=O)[C@H](CCCCN)NC(=O)[C@H](CSSC[C@H](NC(=O)[C@H]([C@@H](C)O)NC(=O)[C@H](Cc4c[nH]c5ccccc45)NC1=O)C(=O)N[C@@H](CC(=O)O)C(=O)N[C@@H](CO)C(=O)N[C@@H](CCCCN)C(=O)N[C@@H](CCCNC(=N)N)C(=O)N[C@@H](C)C(=O)N3)NC(=O)[C@H](CCCNC(=N)N)NC(=O)[C@H](CC(C)C)NC(=O)CNC(=O)[C@H](Cc1cn(CCCOCCOCCOCCOCCOCCOCCOCCOCCOCCOCCN)nn1)NC2=O` [compound 443] yielded a Nav1.5/Nav1.7 (hNav1.5; Table 13) of 236, a Nav1.4/Nav1.7 (hNav1.4; Table 13) of 31 and an IC50 [1] of 35.2 nM. The “block of TTX-sensitive Nav current” value ([1]; 300 nM) was “over 75%”.

`C#CC[C@H](N)C(=O)N[C@@H](Cc1ccc(O)cc1)C(=O)N[C@H]1CSSC[C@@H]2NC(=O)[C@@H]3CSSC[C@@H](C(=O)N[C@@H](CCCNC(=N)N)C(=O)N[C@@H](CCCCN)C(=O)N[C@@H](CCC(=O)O)C(=O)N[C@H](C(N)=O)[C@@H](C)CC)NC(=O)[C@H](Cc4c[nH]c5ccccc45)NC(=O)[C@H](CC(C)C)NC(=O)[C@H](CCCCN)NC(=O)[C@H](CSSC[C@H](NC(=O)[C@H]([C@@H](C)O)NC(=O)[C@H](Cc4c[nH]c5ccccc45)NC(=O)[C@H](CCCC)NC(=O)[C@H](Cc4c[nH]c5ccccc45)NC(=O)[C@H](CCCCN)NC(=O)[C@H](CCC(N)=O)NC1=O)C(=O)N[C@@H](CC(=O)O)C(=O)N[C@@H](CO)C(=O)N[C@@H](CCC(=O)O)C(=O)N[C@@H](CCCNC(=N)N)C(=O)N[C@@H](C)C(=O)N3)NC(=O)[C@H](CCCNC(=N)N)NC(=O)[C@H](CC(C)C)NC(=O)CNC(=O)[C@H](CCC(=O)O)NC2=O` [compound 715] was tested, and the IC50 (hNav1.7; Table 12, PatchXpress, tonic block) was 1.73 nM, the IC50 (hNav1.5; Table 12, PatchXpress, tonic block, read-out: PX hNav1.5 Tonic IC50) was over 10000 nM and the Nav1.5/Nav1.7 (hNav1.5; Table 12) was over 5794. The IC50 (hNav1.4; Table 12) was 811 nM, the Nav1.4/Nav1.7 (hNav1.4; Table 12) was 470 and the Nav1.6/Nav1.7 (hNav1.6) was 508. For the same compound, the IC50 (hNav1.6) was 877 nM, the IC50 [1] was 144 nM and the “block of TTX-sensitive Nav current” value ([1]; 1000 nM) was “approximately 90%”.

— patent US10344060B2 (priority 2013, dated 2019)
